Key:
Format in all cases: cell-based, human
[1] = test system: HS-ORS; assay: mRNA quantification of ISGs in HS-ORS treated with drugs targeting the IFN pathway; conditions: compared to ORS treated with DMSO
Method: FIG. 2: Outer root sheath (ORS) cells from two patients were treated with two drugs (A. Ruxolitinib B. H151) targeting the interferon (IFN) pathway. mRNA levels of MX1, IP10, IFI27 and OAS1 in ORS. HS-ORS (n=2) were treated with two drugs during 24 hours before performing mRNA quantification.
(§1) ORS cells were lysed with RLT Plus Buffer (Qiagen). The RNA was extracted using the RNeasy Plus Mini Kit (Qiagen) according to the manufacturer's protocol then converted into cDNA using the QuantiTect Reverse Transcription Kit (Qiagen) for IFNβ detection and the High-Capacity cDNA Reverse Transcription Kit (Applied Biosystems, Thermo Fisher Scientific) for the expression of other genes.
For real-time PCR analysis of the cDNA samples thus obtained, we prepared custom-made primer sets using the Brilliant II SYBR green QPCR master mix (Agilent Technologies) or Quantitect SYBR Green PCR Kit (Qiagen) according to the manufacturers' protocols. Real-time PCR was performed on a MX3000P device (Agilent). The GAPDH or OAZ1 mRNA level was used for normalization. The relative expression (ΔCt) of mRNAs of each gene was computed using GAPDH or OAZ-1 expression as the reference.
We used two drugs targeting IFN pathway. HS-ORS (n=2) were treated with drugs during 24 hours before performing mRNA quantification. Four ISGs: MX1, OAS1, IFI27 and IP10 were analyzed.

[2] = test system: HS-ORS cell populations; assay: DNA fiber spreading analysis of fork progression after siSTING transfection; conditions: both HS-ORS cell populations (n=2); siSTING for 2 days before DNA fiber spreading
Description: (§2) FIG. 1: IFI16-STING pathway induces interferon (IFN) production in outer root sheath (ORS) cells from patients with hidradenitis suppurativa (HS). (A) Relative mRNA levels of IFN-β and IP10 in HS-ORS and HD-ORS cells. **P<0.01; ns, nonsignificant; Mann-Whitney rank-sum test. (B) Nonparametric Spearman correlation analysis of the expression of IFN-β genes and percentage of cells in phase S in HS-ORS cell populations. (C) Levels of IFN-β mRNA in HS-ORS (n=10) and HD-ORS (n=4) cell populations transfected with siSTING for 2 days before IFN-β mRNA quantification. (D) IFN-β mRNA levels in HS-ORS cell populations (n=3) transfected with siRNA-cGAS or siRNA-IFI16 for 2 days before IFN-β mRNA quantification. (E) DNA fiber spreading analysis of fork progression in HS-ORS cell populations (n=2) transfected with siSTING for 2 days before DNA fiber spreading. ****P<0.0001, Mann-Whitney rank-sum test. […] Quantification of phospho-IRF3 signal intensity in HS-ORS (n=7) and HD (n=5). […]
DNA fiber spreading was performed as described by Jackson and Pombo (16). […] The DNA fiber images thus acquired were analyzed using MetaMorph Microscopy Automation and Image Analysis Software (Molecular Devices, San Jose, Calif.) and the results were evaluated statistically by applying the two-sided Mann-Whitney rank-sum test with GraphPad Prism software (GraphPad, La Jolla, Calif.).

[3] = test system: HD-ORS; assay: Western blot analysis of phospho-IRF3 after siRNA transfection of HD-ORS; conditions: compared to scramble siRNA
Description: (§3) FIG. 1: IFI16-STING pathway induces interferon (IFN) production in outer root sheath (ORS) cells from patients with hidradenitis suppurativa (HS). (A) Relative mRNA levels of IFN-β and IP10 in HS-ORS and HD-ORS cells. **P<0.01; ns, nonsignificant; Mann-Whitney rank-sum test. (B) Nonparametric Spearman correlation analysis of the expression of IFN-β genes and percentage of cells in phase S in HS-ORS cell populations. (C) Levels of IFN-β mRNA in HS-ORS (n=10) and HD-ORS (n=4) cell populations transfected with siSTING for 2 days before IFN-β mRNA quantification. (D) IFN-β mRNA levels in HS-ORS cell populations (n=3) transfected with siRNA-cGAS or siRNA-IFI16 for 2 days before IFN-β mRNA quantification. (E) DNA fiber spreading analysis of fork progression in HS-ORS cell populations (n=2) transfected with siSTING for 2 days before DNA fiber spreading. ****P<0.0001, Mann-Whitney rank-sum test. (F) Western blot analysis of the levels of phospho-IRF3 in ORS transfected with siSTING or siCtrl. Quantification of phospho-IRF3 signal intensity in HS-ORS (n=7) and HD (n=5).
(§4) The following siRNAs were used: siSTING (CUGCAUCCAUCCAUCCCGUdTdT; SEQ ID NO:1, Sigma #Hs01_00031038, Sigma, St Louis, […].), siIFI16 (L-020004-00-0005, ON-TARGETplus Human IFI16 siRNA SMARTpool, Horizon Discovery, Waterbeach, UK), and sicGAS (L-015607-02-0005, ON-TARGETplus Human MB21D1 siRNA SMARTpool, Horizon Discovery). […]

[4] = test system: HS-ORS; assay: Western blot analysis (phospho-IRF3, cGAS protein) after siRNA transfection of HS-ORS; conditions: compared to scramble siRNA
Description: as §3, §4

[5] = test system: HD-ORS cells; assay: IFN-β and ISG mRNA quantification after siRNA transfection of HD-ORS cells; conditions: compared to scramble siRNA
Description: as §2
as §1, with “genes. […]” for “genes.”

[6] = test system: HS-ORS cells; assay: IFN-β and ISG mRNA quantification after siRNA transfection of HS-ORS cells; conditions: compared to scramble siRNA
Description: as §2
as §1, with “genes. […]” for “genes.”

[7] = first patient, ORS treated 24 hours

Molecule	levels of IFI27 transcripts ([1]; HS-ORS (n=2), 24 hours)	levels of IP10 transcripts ([1]; HS-ORS (n=2), 24 hours)	levels of MX1 transcripts ([1]; HS-ORS (n=2), 24 hours)	levels of OAS1 transcripts ([1]; HS-ORS (n=2), 24 hours)	levels of IFI27 transcripts [1, 7]	levels of IP10 transcripts [1, 7]	levels of MX1 transcripts [1, 7]	levels of OAS1 transcripts [1, 7]	IdU track length [2]	IRF3 phosphorylation at Ser396 (pIRF3) [3]	IRF3 phosphorylation at Ser396 (pIRF3) [4]	IFN-β transcript levels ([5]; HD-ORS cells, siRNA 10 μM, 2 days)	ISGs transcripts (OAS1 and IP-10) ([5]; ORS from HD)	IFN-β transcript levels ([6]; HS-ORS cells, siRNA 10 μM, 2 days)	ISGs transcripts (OAS1 and IP-10) ([6]; ORS from HS patients)
CCc1ccc(NC(=O)Nc2c[nH]c3ccccc23)cc1 [H151, N-(4-Ethylphenyl)-N′-1H-indol-3-yl-urea]	reduced levels	reduced levels	reduced levels	reduced levels	reduced levels	reduced levels	reduced levels	reduced levels	–	–	–	–	–	–	–
siSTING: siRNA CUGCAUCCAUCCAUCCCGUdTdT; SEQ ID NO:1, Sigma #Hs01_00031038 (sense CUGCAUCCAUCCAUCCCGUTT; dTdT overhang, further chemistry not given here)	–	–	–	–	–	–	–	–	decreased to the length observed in HD-ORS cells	no modification	inhibition	not associated with a difference	no change	lower	decrease
